Key:
[1] = Hydrolysis kinetics in rat whole blood; type: in vitro ADME
Protocol: Kinetic analysis of Fer-Ger was performed by incubating the compound at 37 °C in heparinized whole blood obtained from healthy human volunteers or from male Wistar rats weighing 200–250 g. In particular, appropriate amounts of stock solution in DMSO were added to a volume of 3 mL of whole blood in order to obtain the final concentration of 30 µM (9.92 µg/mL). Samples (100 μL) were withdrawn at defined time intervals and immediately treated. Specifically, they were firstly added to ice-cold water (500 µL); then, sulfosalicylic acid (10%, 50 µL) and the internal standard (100 μM carbazole dissolved in a mixture of MeOH and H2O 50:50 v/v, 50 µL) were added; finally, 1 mL of H2O-saturated ethyl acetate was used twice as extraction solvent. The samples were centrifuged (13,500× g for 10 min) and the organic phase was evaporated under a nitrogen stream. The residue was re-suspended in a mixture of H2O and CH3CN (50:50 v/v, 150 µL) and centrifuged (16,000× g for 5 min). […] All the values were derived from the mean of three independent incubation experiments.
(§1) The Fer-Ger degradation in whole blood or homogenates was analyzed as exponential decay plots of its concentrations versus incubation time, and the related half-life values were obtained from the linear regression of the corresponding semi-logarithmic plots. The quality of the fits was evaluated by considering the correlation coefficients (r) and p values. The computer program GraphPad Prism 7 (GraphPad, San Diego, CA, USA) allowed to perform the calculations.
Fer-Ger and its hydrolysis product, Ger, were quantified by HPLC. The chromatographic apparatus consisted of a modular system (model LC-40D) pump and DAD detector (model SPD-M40, Shimadzu, Kyoto, Japan) and an injection valve with a 20 μL sample loop (model 7725; Rheodyne, IDEX, Torrance, CA, USA).

[2] = Hydrolysis kinetics in human whole blood; type: in vitro ADME
Protocol: Kinetic analysis of Fer-Ger was performed by incubating the compound at 37 °C in heparinized whole blood obtained from healthy human volunteers or from male Wistar rats weighing 200–250 g. In particular, appropriate amounts of stock solution in DMSO were added to a volume of 3 mL of whole blood in order to obtain the final concentration of 30 µM (9.92 µg/mL). Samples (100 μL) were withdrawn at defined time intervals and immediately treated. Specifically, they were firstly added to ice-cold water (500 µL); then, sulfosalicylic acid (10%, 50 µL) and the internal standard (100 μM carbazole dissolved in a mixture of MeOH and H2O 50:50 v/v, 50 µL) were added; finally, 1 mL of H2O-saturated ethyl acetate was used twice as extraction solvent. The samples were centrifuged (13,500× g for 10 min) and the organic phase was evaporated under a nitrogen stream. The residue was re-suspended in a mixture of H2O and CH3CN (50:50 v/v, 150 µL) and centrifuged (16,000× g for 5 min). […]
as §1, with “The computer program GraphPad Prism 7 (GraphPad, San Diego, CA, USA) allowed to perform the calculations.” left out
Fer-Ger and its hydrolysis product, Ger, were quantified by HPLC. […]

differentiated N2a cells = experiment: DCFH-DA assay of intracellular ROS production; type: cell-based, mouse
Protocol: N2a cells were seeded on T75 flasks and grown in Dulbecco’s Modified Eagle Medium (DMEM) containing Glutamax, supplemented with 100 μg/mL streptomycin, 100 IU/mL penicillin, and 10% fetal bovine serum (FBS) in a humidified 5% CO2 atmosphere at 37 °C. After two passages by trypsinization, cells were seeded at a density of 5 × 10^3 cells/well in 12-well plates with 2 mL of DMEM or at a density of 5 × 10^2 cells/well in 96-well plates with 0.2 mL of DMEM, depending on the study (see below). For neural differentiation, N2a cells were allowed to adhere and proliferate in wells for 4 days; then, after washing once with serum-free DMEM, differentiating medium composed of DMEM containing 1% HS and 20 μM all-trans-retinoic acid (atRA) was added in both the seeding conditions, up to 6 days of differentiation, after which the cells were used for the experiments.
The potential antioxidant effect of Fer-Ger was evaluated according to the original method of Wang and Joseph. In this method, the nonpolar 2′,7′-dichlorofluorescin diacetate (DCFH-DA) enters the intact cells and is hydrolyzed by intracellular esterases to nonfluorescent DCFH carboxylate anion, which remains entrapped and becomes the high fluorescent dichlorofluorescin (DCF) after oxidation by free radicals generated by a stressor, such as H2O2. Therefore, H2O2-induced intracellular ROS production was measured in N2a cells by a florescence intensity assay following exposure to the oxidation-sensitive dye DCFH-DA. N2a cells were seeded at a density of 1 × 10^4 cells/well in a black-coated and clear bottom 96-well plate and neuron-differentiated as reported above. After 6 days, differentiating medium in N2a cells was replaced with pre-warmed phenol-red-free and serum-free DMEM containing 10 µM DCFH-DA and incubated for 30 min in the dark in a humidified 5% CO2 atmosphere at 37 °C. The 10 µM DCFH-DA loading solution was then removed, and the cells were washed twice with fresh phenol-red-free and serum-free DMEM to remove the redundant extracellular DCFH-DA probe. Subsequently, N2a cells were incubated with pre-warmed phenol-red free DMEM containing 1% FBS as an untreated control and with solutions dissolved in phenol-red free DMEM containing 1% FBS of Fer-Ger (1, 5, or 10 µM) or 100 µM ascorbic acid (AA, as an established antioxidant positive control) and incubated for 1 h in a humidified 5% CO2 atmosphere at 37 °C. After this time, 100 µM H2O2 was added in the absence or presence of 1, 5 or 10 µM Fer-Ger or 100 µM AA, and the fluorescence intensity was measured at an excitation wavelength of 485 nm and at an emission wavelength of 530 nm, monitoring the oxidation of DCFH to DCF by the intracellular ROS by running the kinetic over 75 min in a fluorescence microplate reader (VICTOR^3TM 1420 Multilabel counter, PerkinElmer, Milan, Italy). Results were represented as a percentage of intracellular ROS production (100% of control) resulting from the mean values ± SEM of sextuplicate wells over time.

[3] = test system: neuronal differentiated N2a cells; experiment: MTT assay for evaluation of Fer-Ger toxicity; type: cell-based, mouse; conditions: 1 h exposure
Protocol: N2a cells were seeded on T75 flasks and grown in Dulbecco’s Modified Eagle Medium (DMEM) containing Glutamax, supplemented with 100 μg/mL streptomycin, 100 IU/mL penicillin, and 10% fetal bovine serum (FBS) in a humidified 5% CO2 atmosphere at 37 °C. After two passages by trypsinization, cells were seeded at a density of 5 × 10^3 cells/well in 12-well plates with 2 mL of DMEM or at a density of 5 × 10^2 cells/well in 96-well plates with 0.2 mL of DMEM, depending on the study (see below). […]
The potential neurotoxicity of Fer-Ger in N2a differentiated cells, seeded at a density of 5 × 10^2 cells/well in a 96-well plate as reported above, was assayed with the 3-(4,5-dimethylthiazol-2-yl)-2,5-diphenyltetrazolium (MTT) test after incubation for 1 h at 37 °C in a humidified 5% of CO2 atmosphere at 37 °C with increasing concentrations (1, 5, 10, 40, 70, 100 µM) of Fer-Ger dissolved in 0.2 mL of DPBS, supplemented with 0.9 mM CaCl2, 0.5 mM MgCl2, 5.3 mM glucose, and 0.1% BSA to ensure the solubilization of the compound in aqueous media. […] Finally, the absorbance of each well was measured at 570 nm using a microtiter plate reader (Sunrise® Microplate Reader, Tecan Trading AG, Männedorf, Switzerland). The values were expressed as cell vitality percentages with respect to control in the absence of compounds. […]

half-life at 30 µM ([1]; male, Wistar, heparinized whole blood, rat whole blood, 37 °C, 30 µM, pseudo-first-order kinetic, read-out: half-life (t1/2) of hydrolysis): 0.336 ± 0.0125 h
time to almost complete degradation ([1]; rat whole blood): ≤ 2 h
hydrolysis rate relative to human whole blood ([1]; rat whole blood vs human whole blood): about 10 times faster
remaining amount of Fer-Ger ([2]; after three hours of incubation in human whole blood, % of overall incubated amount): about 50%
half-life at 30 µM ([2]; heparinized whole blood, human whole blood, 37 °C, 30 µM, pseudo-first order kinetic, read-out: half-life (t1/2) of hydrolysis): 3.23 ± 0.349 h
SMILES: COc1cc(/C=C/C(=O)OC/C=C(\C)CCC=C(C)C)ccc1O [Fer-Ger, Geranyl ferulate]
effect on basal ROS production (differentiated N2a cells; Fer-Ger 1, 5 and 10 µM alone, 75 min): did not affect the ROS production
effect on H2O2-induced ROS production (differentiated N2a cells; Fer-Ger 1, 5 and 10 µM with 100 µM H2O2, all times tested, p < 0.05): increased the H2O2-induced ROS production
concentration at which neurotoxic effect starts ([3]; p < 0.05 vs untreated cells): 40 µM
IC50 ([3]; Mus musculus, neuronal differentiated N2a cells, read-out: IC50 value of cell viability): 84.09 ± 0.26 µM

Reference: paper PMC11172460 (International Journal of Molecular Sciences, 2024)
